Laboratory results from patent US20160074420A1, “ORAL B12 THERAPY” (Emisphere Technologies, Inc., priority 2010, published 2016).

Key:
[1] = Vitamin B12 absorption after dosing Sprague-Dawley rats (plasma vitamin B12 by RIA); format: in vivo; conditions: for AUC / Cmax / Tmax: male Sprague-Dawley rats, mean, N = 5
Method: (1) 8.8 mg of vitamin B12, 35 mg of SNAC were weighed, thoroughly mixed and made into a tablet for dosing in rats; (2) 8.8 mg of vitamin B12, 35 mg of SNAC and 5 mg of capmul PG-8 (propylene glycol monocaprylate) were weighed, thoroughly mixed and made into a tablet; (3) 8.8 mg of vitamin B12, 35 mg of SNAC and 0.9 mg of povidone were weighed, thoroughly mixed and made into a tablet. Each of the […] processes was repeated to produce more tablets.
Male Sprague-Dawley rats (325-350 g) were dosed with vitamin B12 intravenously (0.5 mg/kg) alone, or orally with the tablets made in Example 4 at a dose of 50 mg/kg, vitamin B12 alone or in combination with SNAC at 200 mg/kg. Blood samples were collected at 0, 3, 10, 20, 30, 60, 120, 240 and 360 minutes post dosing. Plasma samples were analyzed for vitamin B12 by RIA. The model independent pharmacokinetic (PK) metrics obtained following administration of the vitamin B12/SNAC combination were compared to those obtained following administration of vitamin B12 alone.

[2] = Open label randomized study: serum cobalamin (B12) levels in subjects with mild vitamin B12 deficiency; format: in vivo, human; conditions: for Cobalamin Responder (%): number of subjects (%) with cobalamin >=350 pg/mL; for Cobalamin Responder (%) / Cobalamin Non-responder (%): ITT; for Cobalamin Non-responder (%): number of subjects (%); for mean (SD) percent change in cobalamin levels: serum
Method: In this study, the efficacy and safety of the oral vitamin B12 formulation (1 mg) of the present invention and intramuscular (IM) cyanocobalamin (1 mg) were evaluated in subjects with mild vitamin B12 deficiency.
(§1) This was an open-label, randomized 60-day study, with a 30-day extension, conducted in B12 deficient subjects. Subjects were assigned to a treatment according to a randomization schedule prepared by a statistician at the start of the study. The randomization scheme was stratified such that a balanced number of males and females were assigned to each treatment group. Subjects were randomized to receive either a 1000 μg oral tablet, administered once daily for 90 days or 1000 μg cyanocobalamin, administered IM on Days 1, 3, 7, 10, 14, 21, 30, 60 and 90.
(§2) A single tablet was self-administered in the fasted state and at least one hour prior to the morning meal with 50 mL water. IM study drug administration was performed by study personnel, in the research clinic, in the morning, in the fasted state and at least 1 hour prior to the morning meal on study Days 1, 3, 7, 10, 14, 21, 30, 60 and 90. For subjects assigned to receive tablets, treatment compliance was based on subject diary entries. Blood samples for pharmacodynamic assessments (efficacy variables) were collected from all subjects at baseline prior to dosing (Day 1), and on Days 15, 31, 61 and 91. Sample collection was carried out approximately 24 hours after the last dose administration, prior to that day's dose administration, and in the fasting state.
(§3) Serum cobalamin (B12) levels were determined by a validated microparticle enzyme immunoassay (MEIA) detection method with a calibration range of 100-2000 pg/mL. Sample dilution procedures were validated up to 4-fold dilution. Serum MMA levels were determined by a validated LC/MS/MS method with a calibration range of 5-200 ng/mL. Plasma HC levels were determined by a validated fluorescence polarization immunoassay (FIPA) detection method with a calibration range of 2.5-50 μmol/L; and plasma holotranscobalamin (active B12) levels were determined using a validated MEIA method, with a calibration range of 8-128 pmol/L. Sample dilution procedures were validated up to 32-fold dilution.
(§4) The primary efficacy variable was serum cobalamin levels on Day 61. The primary efficacy outcome compared the proportion of subjects in each treatment group whose cobalamin levels were normalized (≧350 pg/mL) on Day 61. The secondary efficacy variables were serum cobalamin levels on Day 91, serum MMA levels on Day 61 and Day 91 and, plasma total HC levels on Day 61 and Day 91.
(§5) The secondary efficacy outcomes were: comparison of the proportion of subjects in each treatment group whose cobalamin levels were normalized (≧350 pg/mL) on Day 91; comparison of the mean percent change from baseline in serum cobalamin levels among subjects in each treatment group on Day 61 and Day 91; comparison of the mean percent change from baseline in serum MMA levels among subjects in each treatment group on Day 61 and Day 91; comparison of the mean percent change from baseline in total plasma HC among subjects in each treatment group on Day 61 and Day 91; comparison of the mean first time to normalization of serum cobalamin (≧350 pg/mL) among subjects in each treatment group on Day 61 and Day 91. Exploratory efficacy variables and outcomes were: plasma holotranscobalamin levels on Day 61 and Day 91, measured by: comparison of the proportion of subjects in each treatment group whose holotranscobalamin levels were normalized (≧40 pmol/L) on Day 61 and Day 91; the relationship between cobalamin and holotranscobalamin levels on Day 61 and Day 91.
The analysis of the primary efficacy outcome compared the proportion of subjects in each treatment group whose cobalamin levels were normalized (i.e., cobalamin ≧350 pg/mL) on Day 61 Visit. The number and frequency of normalized subjects was calculated. […]

[3] = Open label randomized study: plasma holotranscobalamin (active B12) levels; format: in vivo, human; conditions: for Holotranscobalamin Responder (%): number of subjects (%) with holotranscobalamin >=40 pmol/L; for Holotranscobalamin Responder (%) / Holotranscobalamin Non-responder (%): ITT; for Holotranscobalamin Non-responder (%): number of subjects (%)
Method: as §1, §2, §3, §5
The proportion of subjects who achieved normalization of holotranscobalamin levels (≧40 pmol/L) at Day 61 and Day 91 were analyzed using the same methodology as given for the primary analysis. The relationship between cobalamin and holotranscobalamin levels at Day 61 and Day 91, and the PCFB to Day 61 and Day 91 were explored. The relationship was analyzed graphically.

methylmalonic acid (MMA) = test: Open label randomized study: serum MMA levels; format: in vivo, human; conditions: for mean (SD) percent change in MMA levels: serum
Method: as §1, §2, §3, §4, §5
(§6) Change from baseline (CFB) is defined as (X−B). Percent change from baseline (PCFB) is defined as PCFB=100(X−B)/B, where B is the baseline (pre-dose Day 1) measurement and X is the measurement at Day 61 or Day 91, as required.
(§7) The proportion of subjects who achieved normalization of cobalamin levels (i.e., cobalamin ≧350 pg/mL) at Day 91 was to be analyzed using the same methodology as given above for the primary analysis (i.e., Day 61). […]

homocysteine (HC) = test: Open label randomized study: plasma HC levels; format: in vivo, human; conditions: for mean (SD) percent change in HC levels: plasma
Method: as §1, §2, §3, §4, §5, §6, §7

[4] = Open label randomized study: safety assessments (adverse events); format: in vivo, human; conditions: 90-day study
Method: Safety assessments consisted of monitoring adverse events (AEs), hematology, chemistry and urinalysis laboratory test results, concomitant medications, vital sign assessments, ECG and physical examination findings.
A resting 12-lead ECG was recorded at screening and at the End-of-Study visit prior to discharge from the study. The ECG parameters recorded included ventricular rate (bpm), PR interval (msec), QRS duration (msec), QT interval (msec), QTc interval (msec, Bazett's correction). A physical examination was performed at screening and at the End-of-Study visit prior to discharge from the study.
The safety population included all randomized subjects who received at least one administration of study product and who had at least one subsequent safety assessment. Subjects are included in this group based on the actual treatment received. All safety analyses were performed on the safety population.

[5] = cited from earlier work
[6] = 50 mg/kg vitamin B12 PO (tablet)
[7] = Day 1 (baseline prior to dosing)

Substance: Vitamin B12
- AUC ([1]; 0.5 mg/kg IV): 65.84 µg·min/mL
- Cmax ([1]; 0.5 mg/kg IV): 2150 ng/mL
- Tmax ([1]; 0.5 mg/kg IV): 4.4 min
- AUC [1, 6]: 28.72 µg·min/mL
- Cmax [1, 6]: 140 ng/mL
- Tmax [1, 6]: 52 min
- Mean Bioavailability ([1]; 50 mg/kg vitamin B12 PO versus 0.5 mg/kg IV, rats): 0.42%

Substance: cyanocobalamin [IM B12]
- Total B12, Mean [2, 7]: 369 pg/mL
- Total B12, Mean ([2]; Day 15): 2434 pg/mL
- Cobalamin Responder (%) ([2]; Day 15): 26 (100.0) %
- Cobalamin Non-responder (%) ([2]; Day 15): 0 (0.0) %
- Total B12, Mean ([2]; Day 61): 2258 pg/mL
- mean (SD) percent change in cobalamin levels ([2]; Day 61, change from baseline): 714.6 (732.11) percent
- Cobalamin Responder (%) ([2]; Day 61): 26 (100.0) %
- Cobalamin Non-responder (%) ([2]; Day 61): 0 (0.0) %
- Total B12, Mean ([2]; Day 91): 2057 ± 935 pg/mL
- mean (SD) percent change in cobalamin levels ([2]; Day 91, change from baseline): 608.9 (446.68) percent
- Total B12, Mean ([2]; Day 91, listed as IM Treatment Group): 2057 pg/mL
- Cobalamin Responder (%) ([2]; Day 91): 26 (100.0) %
- Cobalamin Non-responder (%) ([2]; Day 91): 0 (0.0) %
- HTC, Mean [3, 7]: 34.32 pmol/L
- HTC, Mean ([3]; Day 15): 899 pmol/L
- Holotranscobalamin Responder (%) ([3]; Day 15): 26 (100.0) %
- Holotranscobalamin Non-responder (%) ([3]; Day 15): 0 (0.0) %
- HTC, Mean ([3]; Day 61): 739 pmol/L
- Holotranscobalamin Responder (%) ([3]; Day 61): 26 (100.0) %
- Holotranscobalamin Non-responder (%) ([3]; Day 61): 0 (0.0) %
- HTC, Mean ([3]; Day 91): 877 pmol/L
- Holotranscobalamin Responder (%) ([3]; Day 91): 26 (100.0) %
- Holotranscobalamin Non-responder (%) ([3]; Day 91): 0 (0.0) %
- MMA, Mean (methylmalonic acid (MMA); [7]): 232 nmol/L
- MMA, Mean (methylmalonic acid (MMA); Day 15): 128 nmol/L
- MMA, Mean (methylmalonic acid (MMA); Day 61): 148 nmol/L
- mean (SD) percent change in MMA levels (methylmalonic acid (MMA); Day 61, change from baseline): −28.17 (24.754) percent
- MMA, Mean (methylmalonic acid (MMA); Day 91): 149 nmol/L
- mean (SD) percent change in MMA levels (methylmalonic acid (MMA); Day 91, change from baseline): −26.58 (25.643) percent
- Homocysteine, Mean (homocysteine (HC); [7]): 13 µmol/L
- Homocysteine, Mean (homocysteine (HC); Day 15): 10 µmol/L
- Homocysteine, Mean (homocysteine (HC); Day 61): 11 µmol/L
- mean (SD) percent change in HC levels (homocysteine (HC); Day 61, change from baseline): −17.49 (24.099) percent
- Homocysteine, Mean (homocysteine (HC); Day 91): 12 µmol/L
- mean (SD) percent change in HC levels (homocysteine (HC); Day 91, change from baseline): −8.805 (28.5406) percent
- subjects reported at least one AE [4]: 57.7%
- subjects reported serious adverse events (SAEs) [4]: 11.5%
- Subjects who discontinued because of an AE ([4]; safety population): 0 (0)^ n (%)
- Subjects with AEs ([4]; safety population): 15 (57.7) n (%)
- Subjects with SAEs ([4]; safety population): 3 (11.5) n (%)
- Subjects with TEAEs ([4]; safety population): 15 (57.7) n (%)

Substance: cyanocobalamin [Oral cyanocobalamin]
- B12 levels increased by a mean value ([5]; 1000 μg/day oral, 1 week, in 17 of 20 elderly patients (Kaltenbach et al.)): 0.23 µg/L
- patients normalized (serum B12 levels) ([5]; 2.5 year study (Andres et al.)): 95%
- patients achieved normal serum B12 levels ([5]; 3 month studies (Andres et al.)): 80-90%
- patients with clinical improvements ([5]; Andres et al.): 20-30%
